Consider 5 cell lines from the supplement of paper PMC10307832.

Holding throughout (assay): relative viability (nuclei count vs DMSO), 5 days (fraction); higher = more cells survive
Compound in the experiment “XMD13-2 + Lapatinib”: C1CC1C(=O)NC2=NNC3=C2C=CC(=C3)C4=CC(=CC=C4)C(=O)NC5CC5 [XMD13-2] + CS(=O)(=O)CCNCc1ccc(-c2ccc3ncnc(Nc4ccc(OCc5cccc(F)c5)c(Cl)c4)c3c2)o1 [Lapatinib] (partner 2 µM)
The method in brief: (§1)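 Relative viability is defined as nuclei in treated wells over nuclei in vehicle wells. Duplicate plates were run and medians reported. Lung cancer cell lines in 1536-well plates were dosed by pin tool one day after seeding, with one drug or with a fixed anchor-drug dose plus five library-drug doses (not always all listed) in √10 steps, and nuclei were counted after 5 days.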

Compound in the experiment “XMD13-2 + AZD7762”: C1CC1C(=O)NC2=NNC3=C2C=CC(=C3)C4=CC(=CC=C4)C(=O)NC5CC5 [XMD13-2] + NC(=O)Nc1cc(-c2cccc(F)c2)sc1C(=O)N[C@H]1CCCNC1 [AZD7762] (partner 0.2 µM)
The method in brief: as §1

Compound in the experiment “ALW-II-49-7 + Navitoclax”: Cc1ccc(C(=O)Nc2cccc(C(F)(F)F)c2)cc1Nc1cncc(C(N)=O)c1 [ALW-II-49-7] + CC1(C)CCC(c2ccc(Cl)cc2)=C(CN2CCN(c3ccc(C(=O)NS(=O)(=O)c4ccc(N[C@H](CCN5CCOCC5)CSc5ccccc5)c(S(=O)(=O)C(F)(F)F)c4)cc3)CC2)C1 [Navitoclax] (partner 0.5 µM)
Summed up: as §1

Compound in the experiment “Dasatinib + Navitoclax”: Cc1nc(Nc2ncc(C(=O)Nc3c(C)cccc3Cl)s2)cc(N2CCN(CCO)CC2)n1 [Dasatinib] + CC1(C)CCC(c2ccc(Cl)cc2)=C(CN2CCN(c3ccc(C(=O)NS(=O)(=O)c4ccc(N[C@H](CCN5CCOCC5)CSc5ccccc5)c(S(=O)(=O)C(F)(F)F)c4)cc3)CC2)C1 [Navitoclax] (partner 0.5 µM)
The method in brief:
as §1

Turning to NCI-H2085, the relative viability in the experiment with XMD13-2 + Lapatinib (first compound 0.05 µM) was 0.821; with XMD13-2 + Lapatinib (first compound 0.1581 µM), 0.776; with XMD13-2 + Lapatinib (first compound 0.5 µM), 0.87; with XMD13-2 + Lapatinib (first compound 1.581 µM), 0.809; with XMD13-2 + Lapatinib (first compound 5 µM) it was 0.699; in the experiment with XMD13-2 + AZD7762 (first compound 0.05 µM), 0.993. Besides, the relative viability in the experiment with XMD13-2 + AZD7762 (first compound 0.1581 µM) stood at 0.995; with XMD13-2 + AZD7762 (first compound 0.5 µM) it was 1.04; with XMD13-2 + AZD7762 (first compound 1.581 µM), 0.848; in the experiment with XMD13-2 + AZD7762 (first compound 5 µM), 1.09; with ALW-II-49-7 + Navitoclax (first compound 0.08 µM), 1.13; with ALW-II-49-7 + Navitoclax (first compound 0.253 µM), 1.15. Besides, the relative viability in the experiment with ALW-II-49-7 + Navitoclax (first compound 0.8 µM) worked out at 1.14; with ALW-II-49-7 + Navitoclax (first compound 2.53 µM), 1.18; with ALW-II-49-7 + Navitoclax (first compound 8 µM), 1.08; in the experiment with Dasatinib + Navitoclax (first compound 0.005 µM) it was 0.757; with Dasatinib + Navitoclax (first compound 0.01581 µM), 0.929; in the experiment with Dasatinib + Navitoclax (first compound 0.05 µM), 0.737. In addition, the values for the relative viability with Dasatinib + Navitoclax (first compound 0.1581 µM) and with Dasatinib + Navitoclax (first compound 0.5 µM) were 0.411 and 0.245, respectively.
For the cell line NCI-H2087, the relative viability with XMD13-2 + Lapatinib (first compound 0.05 µM) is 1.06; with XMD13-2 + Lapatinib (first compound 0.1581 µM), 1.48; with XMD13-2 + Lapatinib (first compound 0.5 µM), 1.01; with XMD13-2 + Lapatinib (first compound 1.581 µM) it was 1.23; in the experiment with XMD13-2 + Lapatinib (first compound 5 µM), 0.737; with XMD13-2 + AZD7762 (first compound 0.05 µM), 1.31. Further, the relative viability came to 1.39 in the experiment with XMD13-2 + AZD7762 (first compound 0.1581 µM); 1.62 in the experiment with XMD13-2 + AZD7762 (first compound 0.5 µM); 1.3 with XMD13-2 + AZD7762 (first compound 1.581 µM); 1.49 with XMD13-2 + AZD7762 (first compound 5 µM); 1.12 in the experiment with ALW-II-49-7 + Navitoclax (first compound 0.08 µM); 0.937 with ALW-II-49-7 + Navitoclax (first compound 0.253 µM). For the same cell line, the relative viability was 0.838 with ALW-II-49-7 + Navitoclax (first compound 0.8 µM); 0.907 with ALW-II-49-7 + Navitoclax (first compound 2.53 µM); 0.949 with ALW-II-49-7 + Navitoclax (first compound 8 µM); 0.997 in the experiment with Dasatinib + Navitoclax (first compound 0.005 µM); 0.873 with Dasatinib + Navitoclax (first compound 0.01581 µM); 1.07 with Dasatinib + Navitoclax (first compound 0.05 µM). The relative viability with Dasatinib + Navitoclax (first compound 0.1581 µM) came out at 0.972; with Dasatinib + Navitoclax (first compound 0.5 µM), 0.532.
Regarding NCI-H2126, the relative viability with XMD13-2 + Lapatinib (first compound 0.05 µM) was 0.728; in the experiment with XMD13-2 + Lapatinib (first compound 0.1581 µM), 0.767; with XMD13-2 + Lapatinib (first compound 0.5 µM), 0.792; with XMD13-2 + Lapatinib (first compound 1.581 µM), 0.706; with XMD13-2 + Lapatinib (first compound 5 µM), 0.765; with XMD13-2 + AZD7762 (first compound 0.05 µM), 1.1. Besides, the relative viability with XMD13-2 + AZD7762 (first compound 0.1581 µM) is 1.04; in the experiment with XMD13-2 + AZD7762 (first compound 0.5 µM), 0.98; in the experiment with XMD13-2 + AZD7762 (first compound 1.581 µM), 1.04; with XMD13-2 + AZD7762 (first compound 5 µM), 0.996; in the experiment with ALW-II-49-7 + Navitoclax (first compound 0.08 µM), 0.86; with ALW-II-49-7 + Navitoclax (first compound 0.253 µM) it was 0.934. The relative viability was 0.855 in the experiment with ALW-II-49-7 + Navitoclax (first compound 0.8 µM); 0.877 in the experiment with ALW-II-49-7 + Navitoclax (first compound 2.53 µM); 0.862 with ALW-II-49-7 + Navitoclax (first compound 8 µM); 0.868 in the experiment with Dasatinib + Navitoclax (first compound 0.005 µM); 0.76 with Dasatinib + Navitoclax (first compound 0.01581 µM); 0.804 with Dasatinib + Navitoclax (first compound 0.05 µM). The relative viability with Dasatinib + Navitoclax (first compound 0.1581 µM) is 0.621; with Dasatinib + Navitoclax (first compound 0.5 µM), 0.374.
Turning to NCI-H2170, the relative viability with XMD13-2 + Lapatinib (first compound 0.05 µM) is 0.307; with XMD13-2 + Lapatinib (first compound 0.1581 µM), 0.272; with XMD13-2 + Lapatinib (first compound 0.5 µM), 0.278; in the experiment with XMD13-2 + Lapatinib (first compound 1.581 µM), 0.284; with XMD13-2 + Lapatinib (first compound 5 µM), 0.266; in the experiment with XMD13-2 + AZD7762 (first compound 0.05 µM), 0.957. The relative viability with XMD13-2 + AZD7762 (first compound 0.1581 µM) was 1; with XMD13-2 + AZD7762 (first compound 0.5 µM) it was 1; with XMD13-2 + AZD7762 (first compound 1.581 µM), 0.884; with XMD13-2 + AZD7762 (first compound 5 µM), 0.859; with ALW-II-49-7 + Navitoclax (first compound 0.08 µM), 0.701; with ALW-II-49-7 + Navitoclax (first compound 0.253 µM), 0.568. The relative viability was 0.569 with ALW-II-49-7 + Navitoclax (first compound 0.8 µM); 0.655 with ALW-II-49-7 + Navitoclax (first compound 2.53 µM); 0.592 with ALW-II-49-7 + Navitoclax (first compound 8 µM); 0.545 with Dasatinib + Navitoclax (first compound 0.005 µM); 0.473 with Dasatinib + Navitoclax (first compound 0.01581 µM); 0.572 with Dasatinib + Navitoclax (first compound 0.05 µM). In addition, the relative viability was found to be 0.267 in the experiment with Dasatinib + Navitoclax (first compound 0.1581 µM) and 0.232 with Dasatinib + Navitoclax (first compound 0.5 µM).
For the cell line NCI-H2347, the relative viability turned out to be 0.987 with XMD13-2 + Lapatinib (first compound 0.05 µM); 0.93 with XMD13-2 + Lapatinib (first compound 0.1581 µM); 0.912 with XMD13-2 + Lapatinib (first compound 0.5 µM); 1.04 with XMD13-2 + Lapatinib (first compound 1.581 µM); 0.973 with XMD13-2 + Lapatinib (first compound 5 µM); 0.971 with XMD13-2 + AZD7762 (first compound 0.05 µM). Besides, the relative viability with XMD13-2 + AZD7762 (first compound 0.1581 µM) was determined as 0.759; in the experiment with XMD13-2 + AZD7762 (first compound 0.5 µM) it was 0.888; in the experiment with XMD13-2 + AZD7762 (first compound 1.581 µM), 0.735; with XMD13-2 + AZD7762 (first compound 5 µM), 0.822; in the experiment with ALW-II-49-7 + Navitoclax (first compound 0.08 µM), 0.899; in the experiment with ALW-II-49-7 + Navitoclax (first compound 0.253 µM), 0.807. Further, the relative viability amounted to 0.721 with ALW-II-49-7 + Navitoclax (first compound 0.8 µM); 0.44 with ALW-II-49-7 + Navitoclax (first compound 2.53 µM); 0.685 with ALW-II-49-7 + Navitoclax (first compound 8 µM); 0.875 with Dasatinib + Navitoclax (first compound 0.005 µM); 0.692 with Dasatinib + Navitoclax (first compound 0.01581 µM); 0.467 in the experiment with Dasatinib + Navitoclax (first compound 0.05 µM). In addition, the relative viability with Dasatinib + Navitoclax (first compound 0.1581 µM) came to 0.285; with Dasatinib + Navitoclax (first compound 0.5 µM), 0.228.
